The values below come from publication PMC12317126 (Nature Communications, 2025).

Experiment [1] deals with T1, cystic fibrosis transmembrane conductance regulator (CFTR) (Homo sapiens, UniProt P13569).
T1 construct: WT human CFTR, PKA-phosphorylated
The experiment can be described thus: ATP hydrolysis of purified CFTR (kcat […] to […] per minute at […]); inside-out patch-clamp. Format: biochemical. Background: In patch-clamp work, channel activity is measured electrically.

In experiment [2] the target is T2, cystic fibrosis transmembrane conductance regulator (CFTR) (Homo sapiens, UniProt P13569, W401A).
T2 construct: C-terminally GFP-fused CFTR in CHO-K1 cells
T2 sequence (P13569 whole entry W401A, the tested form may be a part): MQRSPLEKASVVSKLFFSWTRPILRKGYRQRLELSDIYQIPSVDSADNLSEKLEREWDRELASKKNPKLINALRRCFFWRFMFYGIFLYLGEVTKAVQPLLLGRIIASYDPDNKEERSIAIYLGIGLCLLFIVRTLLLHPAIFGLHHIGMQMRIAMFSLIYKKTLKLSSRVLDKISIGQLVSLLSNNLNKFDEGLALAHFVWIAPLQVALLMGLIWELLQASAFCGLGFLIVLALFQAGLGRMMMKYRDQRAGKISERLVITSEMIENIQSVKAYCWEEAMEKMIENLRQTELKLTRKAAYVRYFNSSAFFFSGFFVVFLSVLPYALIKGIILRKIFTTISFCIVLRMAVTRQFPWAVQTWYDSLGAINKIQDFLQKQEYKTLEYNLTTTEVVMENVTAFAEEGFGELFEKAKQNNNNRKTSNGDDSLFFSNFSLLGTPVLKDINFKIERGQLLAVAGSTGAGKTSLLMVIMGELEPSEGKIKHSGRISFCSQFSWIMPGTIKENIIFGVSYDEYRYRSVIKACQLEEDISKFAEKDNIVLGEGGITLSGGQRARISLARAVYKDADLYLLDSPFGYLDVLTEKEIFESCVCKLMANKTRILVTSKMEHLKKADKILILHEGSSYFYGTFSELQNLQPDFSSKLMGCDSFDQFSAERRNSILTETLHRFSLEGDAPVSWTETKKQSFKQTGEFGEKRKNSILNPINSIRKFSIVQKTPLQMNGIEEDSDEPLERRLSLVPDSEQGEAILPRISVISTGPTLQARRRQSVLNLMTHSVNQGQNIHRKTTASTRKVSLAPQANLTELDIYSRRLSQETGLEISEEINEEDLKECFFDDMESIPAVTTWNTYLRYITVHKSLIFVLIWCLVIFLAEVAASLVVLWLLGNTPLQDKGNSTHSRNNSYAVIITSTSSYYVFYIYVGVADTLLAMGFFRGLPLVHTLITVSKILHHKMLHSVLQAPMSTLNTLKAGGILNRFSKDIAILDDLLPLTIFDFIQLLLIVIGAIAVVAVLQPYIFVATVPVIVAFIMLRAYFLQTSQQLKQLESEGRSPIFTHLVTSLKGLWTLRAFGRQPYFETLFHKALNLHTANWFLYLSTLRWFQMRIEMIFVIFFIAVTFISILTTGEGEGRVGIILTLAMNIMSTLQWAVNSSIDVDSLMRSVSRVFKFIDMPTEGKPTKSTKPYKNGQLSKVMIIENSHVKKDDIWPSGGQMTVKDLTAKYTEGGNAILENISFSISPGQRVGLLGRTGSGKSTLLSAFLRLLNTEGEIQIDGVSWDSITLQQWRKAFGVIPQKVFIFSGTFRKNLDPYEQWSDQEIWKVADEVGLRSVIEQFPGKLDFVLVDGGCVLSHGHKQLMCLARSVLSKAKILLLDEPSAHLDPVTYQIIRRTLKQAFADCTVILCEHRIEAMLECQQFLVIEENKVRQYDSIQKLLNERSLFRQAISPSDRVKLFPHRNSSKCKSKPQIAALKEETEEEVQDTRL
Nature of the experiment: inside-out patch-clamp, inhibition kinetics at […]. Format: cell-based.

T1 sequence (P13569 whole entry): as the sequence (P13569 whole entry W401A, the tested form may be a part) above, with A401W counted along it

Usually inhibition stands for how much of the control response was suppressed. Low readings indicate little suppression, high ones strong suppression. As to `O=C(O)c1ccc(/C=C2\SC(=S)N(c3cccc(C(F)(F)F)c3)C2=O)cc1` [CFTRinh-172], in experiment [1], the inhibition at 10 µM worked out at 72%. On to `Cn1c(=O)c2c(-c3ccccc3)n3c(c2n(C)c1=O)[C@H](c1ccc(Br)o1)Oc1ccc(C(=O)O)cc1-3` [(R)-BPO-27], for which the “inside-out patch-clamp, inhibition kinetics at 10 μM” value in experiment [2] was 4.5 ± 0.8 s (t1/2 of inhibition at 10 µM).
